“And” between values parts separate entries of the source, which are not always exact repeats. Equal values may be shown once. Where a name gives a salt, the structure may show the parent alone.

The nature of data set [1]: Comparison of solubility in water of meloxicam salts by UV analysis.
Data set [2] in a line: Solubility of meloxicam in water near the neutral pH region. The settings on record: at 25° C. In kind it is physicochemical.
[3] abbreviates: pH of the saturated aqueous solution (SAS).
Setting [4] is: pH of the aqueous solution at the concentration of the same line, below saturation.

With `Cc1cnc(NC(=O)C2=C([O-])c3ccccc3S(=O)(=O)N2C)s1.[Na+]` [Sodium Salt, Sodium salt of meloxicam], the pH in data set [1] (setting [3]) came to 8.06.
As to `Cc1cnc(NC(=O)C2=C(O)c3ccccc3S(=O)(=O)N2C)s1` [Trometamol Salt, trometamol salt of meloxicam], the pH was 7.52 and 7.71 in data set [1] (setting [4]); 7.93 in data set [1] (setting [3]).
On to `Cc1cnc(NC(=O)C2=C(O)c3ccccc3S(=O)(=O)N2C)s1` [meloxicam], for which, in data set [2], the “solubility of meloxicam in water, saturated concentration” value is on record as “about 0.2 mg/100 mL”.
With `CNC[C@H](O)[C@@H](O)[C@H](O)[C@H](O)CO.Cc1cnc(NC(=O)C2=C(O)c3ccccc3S(=O)(=O)N2C)s1` [Meglumine Salt, meglumine salt of meloxicam], the pH in data set [1] (setting [4]) was 8.57 and 8.64 and 8.73; in data set [1] (setting [3]), 9.02.

Source of the values: patent US7105512B2, “Ophthalmic aqueous pharmaceutical preparation” (Wakamoto Pharmaceutical Co., Ltd., priority 1999, dated 2006).
